Test in all cases: Fluorescence competitive binding assay with 1-NPN probe
One test concerns the target rGmolPBP1 (Grapholita molesta, UniProt A0A2R4SBD6). The text has this:
(§1) Previous researchers have successfully expressed rGmolPBP1, rGmolPBP2, rGmolPBP3, rGmolGOBP1, and rGmolGOBP2 proteins using prokaryotic expression systems. In this article, the DNA sequences of these five GmolPBPs and GmolGOBPs, with the signal peptides removed and restriction sites on both ends, were inserted into the expression vector pET28a(+) linearized with the same restriction enzyme. These vectors were then transformed into Escherichia coli BL21(DE3) and induced by isopropyl-β-d-thiogalactoside (IPTG). Since all five recombinant proteins were expressed in inclusion bodies, they were denatured using 8 M urea and then renatured using a cysteine/cystine REDOX system. The reduced recombinant proteins were purified using an Ni-NTA His Bind Resin column (7Sea Pharmatech Co., Ltd., Shanghai, China). Non-target proteins were washed off with washing buffer (20 mM Tris-HCl (pH 7.4), 20 mM imidazole, 1 mM PMSF, and 250 mM NaCl), and then the target proteins were eluted with elution buffer (20 mM Tris-HCl (pH 7.4), 1 mM PMSF, and 250 mM NaCl) with an increasing concentration of imidazole (50, 100, and 200 mM). Five milliliters of eluents with high target protein content and low levels of contaminants were collected and placed in dialysis tubing (Coolaber, Beijing, China) with a molecular weight cut-off of 3.5 kDa to remove NaCl and imidazole. The purified soluble proteins were stored at −80 °C before use.
(§2) The binding affinities of three rGmolPBPs and two rGmolGOBPs for Z8-14:Ac were determined using an F-2700 fluorescence spectrophotometer (Hitachi, Tokyo, Japan). First, we measured the dissociation constants (Kd) of the rGmolPBPs (or rGmolGOBPs) binding to 1−NPN. Each protein was diluted to 2 μM with 20 mM Tris-HCl buffer (pH 7.4); then, 2 mL of the protein solution was transferred to a quartz cuvette and titrated with 1 mM 1−NPN to a final concentration of 1–18 μM. As the doses of 1−NPN were increased, the increasing amplitude of the fluorescence intensity decreased, and finally, the binding of the protein to 1−NPN reached saturation. The Kd values were calculated using the nonlinear regression method and the Scatchard equation. Second, we measured the inhibitory constant (Ki) of Z8-14:Ac’s competitive binding with each rGmolPBP (or rGmolGOBP) from the protein/1−NPN complex. The initial fluorescence intensity values were measured after a 2 min reaction in 2 mL solution of 20 mM Tris-HCl (pH 7.4) containing 2 µM rGmolPBP (or rGmolGOBP) protein and 2 µM 1−NPN. Then, the solution was titrated with aliquots of 1 mM Z8-14:Ac to obtain final concentrations in the range of 1–14 µM, and the fluorescence intensity value of each reaction was recorded. The Ki values were calculated using the following equation: Ki = [IC50]/(1 + [1 − NPN]/Kd) where IC50 is the concentration of Z8-14:Ac when half of the initial fluorescence intensity value of the rGmolPBP (or GmolGOBP)/1−NPN complex is replaced, [1 − NPN] represents the concentration of free 1−NPN, and Kd is the dissociation constant of the rGmolPBP (or GmolGOBP)/1−NPN complex.

The target of the next test is rGmolGOBP1 (Grapholita molesta, UniProt H9XTU5).
From the text: as §1, §2

The target in another test is rGmolPBP2 (wild-type) (Grapholita molesta, UniProt A0A059VC28).
From the text: as §1, §2

A further test concerns the target rGmolGOBP2 (Grapholita molesta, UniProt H9XTU6).
From the text: as §1, §2

The next test deals with rGmolPBP3 (Grapholita molesta, UniProt A0A059VBP3).
From the text: as §1, §2

Sequence of rGmolGOBP2 (H9XTU6 entry or part of it): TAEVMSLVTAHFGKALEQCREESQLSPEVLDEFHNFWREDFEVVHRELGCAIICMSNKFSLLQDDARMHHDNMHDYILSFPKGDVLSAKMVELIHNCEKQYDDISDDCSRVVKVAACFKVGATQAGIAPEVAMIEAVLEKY
Sequence of rGmolPBP3 (A0A059VBP3 entry or part of it): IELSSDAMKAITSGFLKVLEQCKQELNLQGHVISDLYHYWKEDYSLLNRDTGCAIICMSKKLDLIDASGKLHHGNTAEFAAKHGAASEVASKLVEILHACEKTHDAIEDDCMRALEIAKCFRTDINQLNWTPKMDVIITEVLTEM
Sequence of rGmolPBP2 (wild-type) (A0A059VC28 entry or part of it): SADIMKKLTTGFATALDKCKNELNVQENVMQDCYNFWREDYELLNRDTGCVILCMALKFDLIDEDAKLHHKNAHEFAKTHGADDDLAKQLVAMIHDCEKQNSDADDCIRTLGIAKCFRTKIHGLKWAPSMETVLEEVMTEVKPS
Sequence of rGmolGOBP1 (H9XTU5 entry or part of it): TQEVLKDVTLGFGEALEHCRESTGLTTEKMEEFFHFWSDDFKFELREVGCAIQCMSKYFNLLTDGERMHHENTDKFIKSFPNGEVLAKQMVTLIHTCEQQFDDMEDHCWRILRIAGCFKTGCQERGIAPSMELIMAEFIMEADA
Sequence of rGmolPBP1 (A0A2R4SBD6 entry or part of it): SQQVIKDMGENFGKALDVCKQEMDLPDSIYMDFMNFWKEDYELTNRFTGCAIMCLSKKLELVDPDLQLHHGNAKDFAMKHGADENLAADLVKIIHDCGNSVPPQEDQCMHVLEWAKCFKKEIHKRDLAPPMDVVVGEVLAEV

`c1ccc(Nc2cccc3ccccc23)cc1` [1−NPN, N-Phenyl-1-naphthylamine, reference compound]: the Kd turned out to be 1.29 ± 0.02 µM on rGmolPBP1; 5.76 ± 0.01 µM at rGmolGOBP1; 1.09 ± 0.02 µM at rGmolPBP2 (wild-type); 4.32 ± 0.02 µM at rGmolGOBP2; 11.24 ± 0.08 µM on rGmolPBP3.

For the origin of these results see publication PMC11678869, “Functional Role of Odorant-Binding Proteins in Response to Sex Pheromone Component Z8-14:Ac in Grapholita molesta (Busck)” (Insects, 2024).
